The values that follow come from ChEMBL document CHEMBL6182889, “Discovery of the first-in-class DOT1L PROTAC degrader” (Eur J Med Chem, 2025).

Structures are written as SMILES. Active and inactive are the calls of the source. The calls are words filed in the database; no cut-off is given here. Where only a bound is given, the exact number is not on record here.

Test [1] addresses T1, von Hippel-Lindau disease tumor suppressor/Histone-lysine N-methyltransferase, H3 lysine-79 specific (Homo sapiens, UniProt Q8TEK3+P40337). As to the kind of experiment: PROTAC activity at VHL/DOT1L in mixed-lineage leukemia rearranged (MLL-r) human THP-1 cells assessed as induction of DOTIL degradation by measuring fold change in H3K79Me2 level at 3 uM incubated for 4 hrs by western blot analysis relative to control. It is filed as cell-based.
Target sequence in this assay (P40337 whole entry, looked up): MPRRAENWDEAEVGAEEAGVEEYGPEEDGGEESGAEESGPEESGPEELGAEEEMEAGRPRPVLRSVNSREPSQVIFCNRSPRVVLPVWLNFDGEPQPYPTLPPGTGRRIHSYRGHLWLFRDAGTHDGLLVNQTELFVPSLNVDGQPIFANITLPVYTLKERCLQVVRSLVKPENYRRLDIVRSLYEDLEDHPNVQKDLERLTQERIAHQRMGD
Target sequence in this assay (Q8TEK3 whole entry, looked up): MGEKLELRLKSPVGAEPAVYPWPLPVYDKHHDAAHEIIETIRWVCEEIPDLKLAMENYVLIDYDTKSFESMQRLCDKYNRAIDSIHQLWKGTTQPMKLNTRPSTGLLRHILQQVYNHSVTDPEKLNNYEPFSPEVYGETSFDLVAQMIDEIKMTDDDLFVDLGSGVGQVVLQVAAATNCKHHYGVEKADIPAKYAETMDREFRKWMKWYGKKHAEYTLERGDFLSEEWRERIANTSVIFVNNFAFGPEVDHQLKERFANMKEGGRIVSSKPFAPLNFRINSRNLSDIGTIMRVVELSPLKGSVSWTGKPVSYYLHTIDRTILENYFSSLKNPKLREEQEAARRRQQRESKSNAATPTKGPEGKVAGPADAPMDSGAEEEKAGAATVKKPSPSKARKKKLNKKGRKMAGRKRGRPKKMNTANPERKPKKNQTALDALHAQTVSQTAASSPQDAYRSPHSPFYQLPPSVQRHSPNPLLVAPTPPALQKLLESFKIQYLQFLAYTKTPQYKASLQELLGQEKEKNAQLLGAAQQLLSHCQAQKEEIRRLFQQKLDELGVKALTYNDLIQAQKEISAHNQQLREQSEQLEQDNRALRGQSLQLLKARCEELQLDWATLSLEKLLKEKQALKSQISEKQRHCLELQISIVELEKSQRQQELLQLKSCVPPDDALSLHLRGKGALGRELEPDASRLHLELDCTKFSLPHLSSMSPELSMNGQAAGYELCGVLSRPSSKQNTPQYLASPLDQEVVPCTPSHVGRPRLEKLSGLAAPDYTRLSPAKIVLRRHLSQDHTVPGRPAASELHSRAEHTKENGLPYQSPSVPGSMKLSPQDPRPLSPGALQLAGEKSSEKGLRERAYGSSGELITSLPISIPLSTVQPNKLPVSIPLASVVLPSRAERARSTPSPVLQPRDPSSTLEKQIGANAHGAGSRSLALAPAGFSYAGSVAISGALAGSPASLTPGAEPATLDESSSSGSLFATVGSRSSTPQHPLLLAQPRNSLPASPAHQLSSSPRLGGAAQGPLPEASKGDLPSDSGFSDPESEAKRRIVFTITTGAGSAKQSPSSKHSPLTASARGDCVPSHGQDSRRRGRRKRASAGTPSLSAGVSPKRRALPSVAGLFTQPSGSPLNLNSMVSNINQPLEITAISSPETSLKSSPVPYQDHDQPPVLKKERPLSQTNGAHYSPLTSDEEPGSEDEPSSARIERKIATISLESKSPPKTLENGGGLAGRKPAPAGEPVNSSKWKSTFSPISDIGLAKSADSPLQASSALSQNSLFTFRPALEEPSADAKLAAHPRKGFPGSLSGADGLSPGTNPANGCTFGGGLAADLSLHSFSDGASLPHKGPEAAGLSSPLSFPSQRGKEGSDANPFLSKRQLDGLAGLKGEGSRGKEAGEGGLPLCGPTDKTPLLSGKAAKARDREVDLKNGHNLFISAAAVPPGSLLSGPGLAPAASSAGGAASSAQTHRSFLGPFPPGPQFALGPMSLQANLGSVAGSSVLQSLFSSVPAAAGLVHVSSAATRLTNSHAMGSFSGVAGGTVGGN

For test [2], the target named is T1, von Hippel-Lindau disease tumor suppressor/Histone-lysine N-methyltransferase, H3 lysine-79 specific. The test is described as follows: PROTAC activity at VHL/DOT1L in mixed-lineage leukemia rearranged (MLL-r) human MV4-11 cells assessed as induction of DOTIL degradation by measuring fold change in H3K79Me2 level at 3 uM incubated for 4 hrs by western blot analysis relative to control. In kind it is cell-based.
Target sequence in this assay (P40337 whole entry, looked up): as the sequence (P40337 whole entry, looked up) above
Target sequence in this assay (Q8TEK3 whole entry, looked up): as the sequence (Q8TEK3 whole entry, looked up) above

Test [3] has the same target. The test is described as follows: PROTAC activity at VHL/DOT1L in mixed-lineage leukemia rearranged (MLL-r) human MOLM-13 cells assessed as induction of DOT1L degradation at 0.3 to 3 uM by western blot analysis. In kind it is cell-based. The settings on record: dose 0.3-3 µM.
Target sequence in this assay (P40337 whole entry, looked up): as the sequence (P40337 whole entry, looked up) above
Target sequence in this assay (Q8TEK3 whole entry, looked up): as the sequence (Q8TEK3 whole entry, looked up) above
Test [4] shares this target. As to the kind of experiment: PROTAC activity at VHL/DOT1L in mixed-lineage leukemia rearranged (MLL-r) human THP-1 cells assessed as induction of DOTIL degradation by measuring fold change in H3K79Me2 level at 3 uM incubated for 2 hrs by western blot analysis relative to control. In kind it is cell-based.
Target sequence in this assay (P40337 whole entry, looked up): as the sequence (P40337 whole entry, looked up) above
Target sequence in this assay (Q8TEK3 whole entry, looked up): as the sequence (Q8TEK3 whole entry, looked up) above
Test [5] has the same target. The test is described as follows: PROTAC activity at VHL/DOT1L in mixed-lineage leukemia rearranged (MLL-r) human MV4-11 cells assessed as induction of DOTIL degradation by measuring fold change in H3K79Me2 level at 3 uM incubated for 24 hrs by western blot analysis relative to control. In kind it is cell-based.
Target sequence in this assay (P40337 whole entry, looked up): as the sequence (P40337 whole entry, looked up) above
Target sequence in this assay (Q8TEK3 whole entry, looked up): as the sequence (Q8TEK3 whole entry, looked up) above
Test [6] concerns MV4-11. As to the kind of experiment: Antiproliferative activity against mixed-lineage leukemia rearranged (MLL-r) human MV4-11 cells assessed as inhibition of cell growth incubated for 7 days by CCK-8 assay. The settings on record: MV4-11, 168 h, time 7 day. In kind it is functional.
The target in test [7] is T1, von Hippel-Lindau disease tumor suppressor/Histone-lysine N-methyltransferase, H3 lysine-79 specific. The test is described as follows: PROTAC activity at VHL/DOT1L in mixed-lineage leukemia rearranged (MLL-r) human MV4-11 cells assessed as induction of DOTIL degradation by measuring fold change in DOT1L protein level at 3 uM incubated for 4 hrs by western blot analysis relative to control. In kind it is cell-based.
Target sequence in this assay (P40337 whole entry, looked up): as the sequence (P40337 whole entry, looked up) above
Target sequence in this assay (Q8TEK3 whole entry, looked up): as the sequence (Q8TEK3 whole entry, looked up) above

Test [8] shares this target. The test is described as follows: PROTAC activity at VHL/DOT1L in mixed-lineage leukemia rearranged (MLL-r) human THP-1 cells assessed as induction of DOT1L degradation incubated for 24 hrs by western blot analysis. In kind it is cell-based.
For test [9] the target is unchanged. As to the kind of experiment: PROTAC activity at VHL/DOT1L in mixed-lineage leukemia rearranged (MLL-r) human THP-1 cells assessed as induction of DOTIL degradation by measuring fold change in DOT1L protein level at 3 uM incubated for 2 hrs by western blot analysis relative to control. It is filed as cell-based.
The target in test [10] is DNA (cytosine-5)-methyltransferase 3A (Homo sapiens) (UniProt Q9Y6K1). The test is described as follows: Inhibition of human DNMT3a using lambda DNA and SAM as substrate at 10 uM by radiometric Hotspot assay.
Chain of DNA (cytosine-5)-methyltransferase 3A (Homo sapiens) (Q9Y6K1 whole entry, looked up): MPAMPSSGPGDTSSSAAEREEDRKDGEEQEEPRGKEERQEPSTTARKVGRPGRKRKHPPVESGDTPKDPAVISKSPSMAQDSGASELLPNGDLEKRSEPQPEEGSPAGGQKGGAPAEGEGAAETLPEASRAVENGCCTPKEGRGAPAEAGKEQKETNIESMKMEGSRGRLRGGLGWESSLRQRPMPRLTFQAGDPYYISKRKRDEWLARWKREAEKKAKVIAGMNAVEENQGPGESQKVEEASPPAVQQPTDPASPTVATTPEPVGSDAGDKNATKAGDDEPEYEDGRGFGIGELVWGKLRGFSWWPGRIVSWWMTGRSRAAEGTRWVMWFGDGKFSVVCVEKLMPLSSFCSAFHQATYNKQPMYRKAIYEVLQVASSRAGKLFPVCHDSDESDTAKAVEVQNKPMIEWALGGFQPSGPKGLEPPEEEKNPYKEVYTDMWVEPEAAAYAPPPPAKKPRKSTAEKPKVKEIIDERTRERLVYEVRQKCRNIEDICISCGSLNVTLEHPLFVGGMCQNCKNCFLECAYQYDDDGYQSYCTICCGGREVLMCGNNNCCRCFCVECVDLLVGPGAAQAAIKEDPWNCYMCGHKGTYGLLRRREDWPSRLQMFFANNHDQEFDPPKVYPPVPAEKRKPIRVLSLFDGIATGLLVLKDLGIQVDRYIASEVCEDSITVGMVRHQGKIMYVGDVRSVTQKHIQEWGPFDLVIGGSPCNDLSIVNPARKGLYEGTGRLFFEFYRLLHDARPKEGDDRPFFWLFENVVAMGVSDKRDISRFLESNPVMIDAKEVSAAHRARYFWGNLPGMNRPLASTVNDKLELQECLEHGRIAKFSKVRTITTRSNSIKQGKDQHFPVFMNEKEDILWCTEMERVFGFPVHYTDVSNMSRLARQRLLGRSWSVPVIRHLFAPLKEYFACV
Test [11] has as its target Protein arginine N-methyltransferase 1 (Homo sapiens) (UniProt Q99873). The test is described as follows: Inhibition of human PRMT1 using histone H4 and SAM as substrate at 10 uM by radiometric Hotspot assay.
Test [12] deals with T1, von Hippel-Lindau disease tumor suppressor/Histone-lysine N-methyltransferase, H3 lysine-79 specific. The test is described as follows: PROTAC activity at VHL/DOT1L in mixed-lineage leukemia rearranged (MLL-r) human THP-1 cells assessed as induction of DOTIL degradation by measuring fold change in H3K79Me2 level at 3 uM incubated for 1 hr by western blot analysis relative to control. It is filed as cell-based.

Test [13] deals with Histone-lysine N-methyltransferase, H3 lysine-79 specific (Homo sapiens) (UniProt Q8TEK3). The test is described as follows: Inhibition of human DOT1L using oligonucleosomes and SAM as substrate at 4.6 nM by radiometric Hotspot assay.
Chain of Histone-lysine N-methyltransferase, H3 lysine-79 specific (Homo sapiens) (Q8TEK3 whole entry, looked up): as the sequence (Q8TEK3 whole entry, looked up) above
In test [14] the target is T1, von Hippel-Lindau disease tumor suppressor/Histone-lysine N-methyltransferase, H3 lysine-79 specific. The test is described as follows: PROTAC activity at VHL/DOT1L in mixed-lineage leukemia rearranged (MLL-r) human THP-1 cells assessed as induction of DOTIL degradation by measuring fold change in H3K79Me2 level at 3 uM incubated for 8 hrs by western blot analysis relative to control. It is filed as cell-based.

Test [15] has the same target. As to the kind of experiment: PROTAC activity at VHL/DOT1L in mixed-lineage leukemia rearranged (MLL-r) human MV4-11 cells assessed as induction of DOTIL degradation by measuring fold change in H3K79Me2 level at 3 uM incubated for 2 hrs by western blot analysis relative to control. It is filed as cell-based.
Test [16] addresses DNA (cytosine-5)-methyltransferase 3B (Homo sapiens) (UniProt Q9UBC3). The test is described as follows: Inhibition of human full length DNMT3b using lambda DNA and SAM as substrate at 10 uM by radiometric Hotspot assay.
A further test relates to MOLM-13. As to the kind of experiment: Antiproliferative activity against mixed-lineage leukemia rearranged (MLL-r) human MOLM-13 cells assessed as inhibition of cell growth incubated for 7 days by CCK-8 assay. It is filed as functional, cell-based. The settings on record: time 7.0 day.
The target of test [17] is T1, von Hippel-Lindau disease tumor suppressor/Histone-lysine N-methyltransferase, H3 lysine-79 specific. The test is described as follows: PROTAC activity at VHL/DOT1L in mixed-lineage leukemia rearranged (MLL-r) human MV4-11 cells assessed as induction of DOTIL degradation by measuring fold change in H3K79Me2 level at 3 uM incubated for 8 hrs by western blot analysis relative to control. It is filed as cell-based.

Test [18] shares this target. The test is described as follows: PROTAC activity at VHL/DOTIL in mixed-lineage leukemia rearranged (MLL-r) human THP-1 cells assessed as induction of DOT1L degradation by measuring fold change in DOTIL protein level at 3 uM incubated for 24 hrs by western blot analysis relative to control. In kind it is cell-based.
The test system of test [19] is MV4-11. As to the kind of experiment: Effect on DOTIL mRNA expression in mixed-lineage leukemia rearranged (MLL-r) human MV4-11 cells at 3 uM incubated for 24 hrs by RT-qPCR analysis. It is filed as functional, cell-based.

Chain of Protein arginine N-methyltransferase 1 (Homo sapiens) (Q99873 whole entry, looked up): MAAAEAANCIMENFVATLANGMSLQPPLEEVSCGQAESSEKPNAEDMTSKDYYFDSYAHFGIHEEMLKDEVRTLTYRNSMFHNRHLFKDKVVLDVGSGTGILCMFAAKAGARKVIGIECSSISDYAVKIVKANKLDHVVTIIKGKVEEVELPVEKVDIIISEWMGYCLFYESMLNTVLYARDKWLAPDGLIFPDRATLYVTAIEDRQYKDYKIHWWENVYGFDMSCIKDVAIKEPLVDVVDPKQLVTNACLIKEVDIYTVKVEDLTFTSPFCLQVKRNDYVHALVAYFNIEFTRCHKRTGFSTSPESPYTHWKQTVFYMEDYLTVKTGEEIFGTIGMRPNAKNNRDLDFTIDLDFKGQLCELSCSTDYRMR

As to `Cc1ncsc1-c1ccc([C@H](CC(=O)NCCCCCCNC(=O)COc2nc(N)nc(Nc3cc(S(N)(=O)=O)ccc3N[C@@H](c3cccc4c3OC(F)(F)O4)c3ncccc3Cl)n2)NC(=O)[C@@H]2C[C@@H](O)CN2C(=O)[C@@H](NC(=O)C2(F)CC2)C(C)(C)C)cc1`, the fold change (FC) in [1] came to 1.08; in test [2], 0.32; in [4] it was 0.97; in test [5] it was 0.17; in [7], 0.27; in test [9], 0.36. In addition, the fold change (FC) in [12] was 0.99; in test [14], 1.13; in test [15] it was 0.41; in test [17], 0.42; in test [18] it was 0.08. The result in test [3] was Active. For the same compound, the GI50 in the test with MV4-11 [6] was determined as 212 nM. Further, the Activity result in [8] was “Dose-dependent-effect”; in the test on MOLM-13, “Active; Reduced Potency In Molm-13 Cells Relative To Mv4-11 Cells Observed”. Also, the DC50 in test [8] was determined as 56 nM. The inhibition entry in test [10], in [11] and in [16] was “inactive” throughout. Also, the inhibition in [13] is above 95%. Besides, the result with MV4-11 [19] was inactive.
